# Data: patent publication US4659727A, “Ethene derivatives” (May & Baker Limited, priority 1984, dated 1987)
# Tests used:
# mouse macrophage cells = test: reduction by 50% of inhibition of migration of incubated mouse macrophage cells (antagonism or reduction of lymphokine levels); type: in vivo; details: po, twice: one hour before and four hours after antigen, each time at the dose shown, mice
# Description: For example, from tests in mice it was calculated that compounds of formula I, when twice administered orally, one hour before and four hours after the administration of antigen, each time at the doses shown in the following Table I, would reduce by 50% the inhibition of migration of incubated mouse macrophage cells measured in a manner similar to that described by Likhite et al, Cellular Immunology, Vol 5, 1972, page 377. This is a measure of antagonism or reduction of the levels of lymphokines and is indicative of utility in the treatment of arthritic patients.
# lipoxygenase = test: inhibition of lipoxygenase in vitro; type: biochemical; details: 0.0001M
# Excerpt: For example, in tests in vitro at concentrations of 0.0001M, a compound of formula I inhibited lipoxygenase by the percentage shown in the following Table III.
# [1] = test system: delayed-type hypersensitivity (Type IV hypersensitivity reaction), foot pad swelling; test: delayed-type hypersensitivity (DTH) test, foot pad swelling; type: in vivo; details: mice
# Excerpt: Compounds of formula I were also submitted to the delayed-type hypersensitivity (DTH) test, which is an in-vivo model of cellular immunity (Type IV hypersensitivity reaction) which is suppressed by antirheumatic drugs. Previously sensitised mice receive antigen challenge (using methylated bovine serum albumen) by foot pad injection and the resulting foot pad swelling is compared in control animals and animals treated with compounds of formula I.
# [2] = dose 50 mg/kg animal body weight
# [3] = dose 10 mg/kg animal body weight
SMILES,ED50 (mouse macrophage cells) [mg/kg],also measured
"Cc1cc(C)nc(NC=CC=O)c1 [AI, 1-formyl-2-(4,6-dimethylpyrid-2-ylamino)ethene]",5.2,
"Cn1cc(C(N)=O)ccc1=NC=C(S(=O)(=O)c1ccccc1)S(=O)(=O)c1ccccc1 [AP, 2-[2,2-bis(phenylsulphonyl)ethen-1-ylimino]-5-carbamoyl-1-methylpyridine]",< 10,
"O=S(=O)(C(=CNc1nccnn1)S(=O)(=O)c1ccccc1)c1ccccc1 [C, 1,1-bis(phenylsulphonyl)-2-(1,2,4-triazin-3-ylamino)ethene]",2,
"O=S(=O)(C(=CNc1nccs1)S(=O)(=O)c1ccccc1)c1ccccc1 [Compound A, 1,1-bis(phenylsulphonyl)-2-(thiazol-2-ylamino)ethene]",10,
"CCOC(=O)C(=CNc1ncccc1C)C(=O)OCC [Compound AM, 1,1-bis(ethoxycarbonyl)-2-(3-methylpyrid-2-ylamino)ethene]",,% inhibition of lipoxygenase (lipoxygenase): 62%
"O=[N+]([O-])c1ccc(N(C=CS(=O)(=O)c2ccccc2)c2ccc(Br)cn2)cc1 [Compound BE, 1-[N-(5-bromopyrid-2-yl)-N-(4-nitrophenyl)]amino-2-phenylsulphonylethene]",4.4,
"O=S(=O)(C(=CNc1nc2ccccc2s1)S(=O)(=O)c1ccccc1)c1ccccc1 [D, 1-(benzothiazol-2-ylamino)-2,2-bis(phenylsulphonyl)ethene]",,"% inhibition [1, 2]: 27%"
"O=S(=O)(C(=CNc1cnc2ccccc2c1)S(=O)(=O)c1ccccc1)c1ccccc1 [E, 1,1-bis(phenylsulphonyl)-2-(quinol-3-ylamino)ethene]",,"% inhibition [1, 3]: 38%; % inhibition [1, 2]: 15%"
"O=S(=O)(C(=CNc1ccc2ccccc2n1)S(=O)(=O)c1ccccc1)c1ccccc1 [G, 1,1-bis(phenylsulphonyl)-2-(quinol-2-ylamino)ethene]",,"% inhibition [1, 3]: 30%; % inhibition [1, 2]: 24%"
"Cc1cc(NC=C(S(=O)(=O)c2ccccc2)S(=O)(=O)c2ccccc2)nc(C)n1 [H, 1-(2,6-dimethylpyrimidin-4-ylamino)-2,2-bis(phenylsulphonyl)ethene]",< 10,
"NC(=O)c1cnc(NC=C(S(=O)(=O)c2ccccc2)S(=O)(=O)c2ccccc2)cn1 [I, 1-(5-carbamoylpyrazin-2-ylamino)-2,2-bis(phenylsulphonyl)ethene]",,% inhibition ([1]; dose 40 mg/kg animal body weight): 30%
"CS(=O)(=O)C(C#N)=CNc1ccc(Br)cn1 [N, 2-(5-bromopyrid-2-ylamino)-1-cyano-1-methylsulphonylethene]",28,
"CC(=O)C(=CNc1ccc(Br)cn1)S(=O)(=O)c1ccccc1 [O, 1-acetyl-2-(5-bromopyrid-2-ylamino)-1-phenylsulphonylethene]",14,
"O=S(=O)(C(=CNCc1ccccc1)S(=O)(=O)c1ccc(Cl)cc1)c1ccc(Cl)cc1 [V, 2-benzylamino-1,1-bis(4-chlorophenylsulphonyl)ethene]",< 10,
"O=S(=O)(C(=CNCc1ccccn1)S(=O)(=O)c1ccc(Cl)cc1)c1ccc(Cl)cc1 [W, 1,1-bis(4-chlorophenylsulphonyl)-2-(pyrid-2-ylmethylamino)ethene]",< 10,
"O=S(=O)(C(=CNc1ccccc1)S(=O)(=O)c1ccccc1)c1ccccc1 [Z, 1-phenylamino-2,2-bis(phenylsulphonyl)ethene]",2,
